Entries after “also recorded” stand apart in the source; their conditions may differ.
How the values were obtained:
[1] = High-temperature test (60° C.), stability study; type: physicochemical; settings: open-stored; for Appearance Day 5: Day 5, cell wraps; for Appearance Day 5 / Appearance Day 10: first line given; for Appearance Day 10: Day 10, cell wraps;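 for all read-outs here: samples kept uncovered in dishes at 60 °C for up to 10 days and examined on Day 5 and Day 10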
Description: (§1) The test samples were open-stored in culture dishes at 60° C. for 10 days, and taken and detected on Day 5 and Day 10. • The characteristics, especially colour change were observed. • Melting points were measured by automatic melting point apparatus. • By self-reflection, TLC is used to observe whether the spot numbers were increased after 5 days and 10 days.

[2] = High humidity test (25° C., relative humidity 90% ± 5%), stability study; type: physicochemical; settings: RH 90% ± 5%; for Appearance Day 0: Day 0, cell wraps; for Appearance Day 0 / Appearance Day 5 / Appearance Day 10: first line given; for Appearance Day 5: Day 5, cell wraps; for Appearance Day 10: Day 10, cell wraps;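 for all read-outs here: samples kept uncovered in sealed humidity desiccators, appearance judged mainly by colour change, melting point on an automatic apparatus, TLC checked for extra spots versus start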
Description: (§2) The test samples were open-stored in closed constant humidity desiccators under the condition of 25° C. and relative humidity of 90%+5% for 10 days, and taken and detected on Day 5 and Day 10. Meanwhile, each sample was accurately weighed before and after test.
The characteristics, especially colour change was observed.
Melting points were measured by an automatic melting point apparatus.
By self-reflection, TLC is used to observe whether the spot numbers were increased after 5 days and 10 days.

[3] = Intense light irradiation test (4500LX ± 500LX), stability study; type: physicochemical; settings: for Appearance Day 0: Day 0, cell wraps; for Appearance Day 0 / Appearance Day 5 / Appearance Day 10: first line given; for Appearance Day 5: Day 5, cell wraps; for Appearance Day 10: Day 10, cell wraps
Description: (§3) The test samples were open-stored in “adjustable light boxes” under the conditions of illumination of 4500LX±500LX for 10 days, and taken and detected on Day 5 and Day 10 with regards to dry items. • The characteristics, especially colour change was observed. • Melting points were measured by an automatic melting point apparatus. • By self-reflection, TLC is used to observe whether the spot numbers were increased after 5 days and 10 days.

[4] = system: ethanol-induced gastric ulcer; experiment: Anhydrous ethanol-induced gastric ulcer in mice; type: in vivo, Kunming mice; set-up: key to Gastri ulcer score (X ± SD) / Ulcer score (X ± SD) / Gastric ulcer score (X ± SD): summed pathology score: congestion 1, hemorrhage/erosion 1, linear erosion 3; settings: for Inhibition rate (%): inhibition rate of ulcer vs model group; for anti-gastric ulcer effect in words: ethanol-induced gastric ulcer in mice, compared to the model group
Procedure, shortened: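 Ulcer induction: 0.5 ml anhydrous ethanol intragastrically, 0.5 h after the fifth daily oral dose (0.4 ml/20 g, 0.5% CMC suspension). Kunming mice, 18-22 g, eight per group, half each sex. Lesions scored pathologically 1 h post-ethanol; inhibition = (model score − treated score)/model score.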

[5] = Stability studies (light, humidity, heat), overall comparison; settings: summary of high-temperature, high humidity and intense light tests
Description: as §1, §2, §3

[6] = Stability of the purified compound in the air; type: physicochemical
[7] = Table 5 data, relative increase

Melting point Day 0 [1]	Spot numbers on TLC Day 0 [1]	Melting point Day 5 [1]	Spot numbers on TLC Day 5 [1]	Appearance Day 5 [1]	Melting point Day 10 [1]	Spot numbers on TLC Day 10 [1]	Appearance Day 10 [1]	Melting point Day 0 [2]	Spot numbers on TLC Day 0 [2]	hygroscopic rate (%) Day 0 [2] [%]	Appearance Day 0 [2]	Melting point Day 5 [2]	Spot numbers on TLC Day 5 [2]	hygroscopic rate (%) Day 5 [2] [%]	Appearance Day 5 [2]	Melting point Day 10 [2]	Spot numbers on TLC Day 10 [2]	Appearance Day 10 [2]	Melting point Day 0 [3]	Compound	further results
107.5-108.5 °C	1	107.0-108.5 °C	1	purple	107.0-108.5 °C	1	purple	108.5-109.0 °C	1	1.89	purple	108.5-109.5 °C	1	2.35	purple	107.5-108.5 °C	1	purple	107.5-108.5 °C	Cc1cc(S(=O)(=O)NC2CCCCC2)c2c(C)ccc(C(C)C)cc1-2 [4i, N-cyclohexyl-3,8-dimethyl-5-isopropyl-1-azulene sulfonamide]	Spot numbers on TLC Day 0 [3]: 1; Appearance Day 0 [3]: purple; Melting point Day 5 [3]: 107.5-108.5 °C; Spot numbers on TLC Day 5 [3]: 1; Appearance Day 5 [3]: purple; Spot numbers on TLC Day 10 ([3]; Day 10): 1; Appearance Day 10 [3]: purple; Inhibition rate (%) ([4]; Table 4): 50.92%; Gastri ulcer score (X ± SD) ([4]; Table 4, mice, intragastric once a day for five days, dose equimolar to azulene sulfonate sodium 3.0 mg/kg (Omeprazole 13.4 mg/kg), model group 13.00 ± 1.77): 6.38 ± 3.85; anti-gastric ulcer effect in words [4]: significantly relieve the pathological degree; melting point: 108 to 109 °C; light, humidity and heat stability in words [5]: better light, humidity and heat stability than azulene sulfonate sodium
87.5-89.0 °C	1	88.0-89.0 °C	1	purple	88.0-89.0 °C	1	purple	87.5-89.0 °C	1	1.09	purple	87.5-89.5 °C	1	1.81	purple	87.5-89.5 °C	1	purple	87.5-89.0 °C	Cc1cc(S(=O)(=O)Nc2ccc(N)cc2)c2c(C)ccc(C(C)C)cc1-2 [4l, N-(4-aminophenyl)-3,8-dimethyl-5-isopropyl-1-azulene sulfonamide]	Spot numbers on TLC Day 0 [3]: 1; Appearance Day 0 [3]: purple; Melting point Day 5 [3]: 87.5-89.0 °C; Spot numbers on TLC Day 5 [3]: 1; Appearance Day 5 [3]: purple; Melting point Day 10 ([3]; Day 10): 87.5-89.5 °C; Spot numbers on TLC Day 10 ([3]; Day 10): 1; Appearance Day 10 [3]: purple; Inhibition rate (%) ([4]; Table 5): 45.20%; Ulcer score (X ± SD) ([4]; Table 5, mice, intragastric once a day for five days, equimolar doses, model group 20.33 ± 12.23): 11.14 ± 6.41; increase of inhibition rate compared to Omeprazole [4, 7]: 23%; increase of inhibition rate compared to azulene sulfonate sodium [4, 7]: 38%; anti-gastric ulcer effect in words [4]: significantly relieve the pathological degree; also recorded: better therapeutic effect on gastric ulcer than azulene sulfonate sodium and omeprazole; melting point: 88 to 90 °C; light, humidity and heat stability in words [5]: better light, humidity and heat stability than azulene sulfonate sodium
–	–	–	–	–	–	–	–	–	–	–	–	–	–	–	–	–	–	–	–	Cc1cc(S(=O)(=O)NN)c2c(C)ccc(C(C)C)cc1-2 [4m, N-amino-3,8-dimethyl-5-isopropyl-1-azulene sulfonamide]	stability in the air [6]: deteriorated soon in the air and had a very poor stability

From patent US9376382B2, “N-substituted isopropyldimethyl azulene sulfonamide derivatives, and preparation method and use thereof” (Sichuan Guokang Pharmaceutical Co., Ltd., priority 2011, dated 2016)
